Target: Coagulation factor XI (Homo sapiens, UniProt P03951)
Assay: Factor XIa Assay: The effectiveness of a compound of the present invention as an inhibitor of Coagulation Factor XIa can be determined using a relevant purified serine protease, and an appropriate synthetic substrate. The rate of hydrolysis of the chromogenic or fluorogenic substrate by the relevant serine protease was measured both in the absence and presence of compounds of the present invention. Assays were conducted at room temperature or at 37° C. […] A decrease in the rate of fluorescence change in the presence of inhibitor is indicative of enzyme inhibition. Such methods are known to one skilled in the art. […] Times required to achieve equilibration between enzyme and inhibitor were determined in control experiments. Initial velocities of product formation in the absence (Vo) or presence of inhibitor (Vi) were measured. Assuming competitive inhibition, and that unity is negligible compared Km/[S], [I]/e, and [I]/e (where [S], [I], and e respectively represent the total concentrations, of substrate, inhibitor and enzyme), the equilibrium constant (Ki) for dissociation of the inhibitor from the enzyme can be obtained from the dependence of Vo/Vi on [I] shown in the following equation. V o /V i=1+[I]/K iThe activities shown by this assay indicate that the compounds of the invention may be therapeutically useful for treating or preventing various cardiovascular and/or cerebrovascular thromboembolic conditions in patients suffering from unstable angina, acute coronary syndrome, refractory angina, myocardial infarction, transient ischemic attacks, atrial fibrillation, stroke such as thrombotic stroke or embolic stroke, venous thrombosis, coronary and cerebral arterial thrombosis, cerebral and pulmonary embolism, atherosclerosis, deep vein thrombosis, disseminated intravascular coagulation, and reocclusion or restenosis of recanalized vessels.

Coagulation factor XI, sequence (P03951 19-387 limits assumed): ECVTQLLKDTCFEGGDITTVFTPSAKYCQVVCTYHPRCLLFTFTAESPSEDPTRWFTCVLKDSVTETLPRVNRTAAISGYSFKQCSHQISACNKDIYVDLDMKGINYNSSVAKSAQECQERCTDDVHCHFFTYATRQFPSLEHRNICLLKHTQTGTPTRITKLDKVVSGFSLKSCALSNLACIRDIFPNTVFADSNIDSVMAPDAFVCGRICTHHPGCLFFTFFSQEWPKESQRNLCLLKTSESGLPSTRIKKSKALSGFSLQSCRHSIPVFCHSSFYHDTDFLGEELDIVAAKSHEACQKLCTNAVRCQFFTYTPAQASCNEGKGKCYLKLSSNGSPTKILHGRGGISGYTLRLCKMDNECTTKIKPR
Coagulation factor XI, sequence (P03951 388-625 limits assumed): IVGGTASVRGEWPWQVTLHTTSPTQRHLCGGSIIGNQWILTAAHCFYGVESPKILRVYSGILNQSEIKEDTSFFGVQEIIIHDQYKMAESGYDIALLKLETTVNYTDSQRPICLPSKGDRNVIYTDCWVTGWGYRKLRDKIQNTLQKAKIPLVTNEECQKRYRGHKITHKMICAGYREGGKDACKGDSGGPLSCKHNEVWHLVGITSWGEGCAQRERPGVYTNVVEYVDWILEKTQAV

SMILES	Ki [µM]
COC(=O)Nc1ccc2c(N[C@@H](Cc3ccccc3)C(=O)N3CCC[C@@]4(C3)OC(=O)Nc3ccc(Cl)cc34)nn(C)c2c1	8.2
COC(=O)Nc1ccc2c(N[C@@H](Cc3ccccc3)C(=O)N3CCC[C@@]4(C3)OC(=O)Nc3ccc(Cl)cc34)noc2c1	0.523
Nc1ccc(-c2c[nH]c(C(Cc3ccccc3)C(=O)N3CCC[C@@]4(C3)OC(=O)Nc3ccc(Cl)c(F)c34)n2)cn1 (some centres undefined)	0.353
CC(=O)Nc1ccc(N[C@@H](Cc2ccccc2)C(=O)N2CCC[C@@]3(C2)OC(=O)Nc2ccc(Cl)cc23)cc1	10

From ChEMBL document CHEMBL5725763, “Factor XIa inhibitors” (2018)
